According to patent US20220250063A1, “ASSAY SYSTEM, METHODS, AND MULTI-WELL PLATE FOR GAS STIMULATION OF BIOLOGICAL CELLS, PROTEINS OR MATERIALS” (Koniku Inc., priority 2021, published 2022):

System: odorant receptor of the modified cells
Test: Gas stimulation of modified cells expressing different odorant receptors in a 96 well microplate, fluorescence recorded by camera
Assay type: cell-based
Conditions: sample as gas in the gas channel of 96 well microplate 80; for fluorescent response of the responding wells: different ORs in different wells, responding wells (81A: one well; 81C: four wells; 81E: two wells); for fluorescent response of all of the other wells: remaining dark wells (81B: 95 wells; 81D: 92 wells; 81F: 94 wells)
Text: In a representative example of operation, an empty microplate is placed in the hatch 120 by a technician or automatically using a microplate loader/unloader. The microplate is moved to the disk support, with the wells aligned with the pipettes. The pipetting head holding the pipettes is lowered to position the tips of the pipettes in or near the wells. The pipettes deposit liquid containing cells into the wells. Inlet and outlet gas nozzles or fittings engage the gas channel inlet and outlet in the microplate. In some embodiments, there are more than one inlets and outlets that correspond to the number of channels and number of samples injected. Gas containing a VOC or other candidate molecule or compound sample is injected through the gas channel of the microplate. This may be done manually or via automation.
If the VOC or other candidate molecule or compound in the sample binds and activates the odorant receptor expressed by the cells, a signal is emitted (e.g., emission of fluorescent or luminescent light). The signal is detected by the camera 128 via the optical unit 126. The computer 138 analyzes and records the location (i.e., the well number or position), the intensity, time duration, color, and/or other parameters of the fluorescent light, along with data on the VOC or other candidate molecule or compound momentarily passing through the microplate. The computer 138 may calculate the mean of the pixels for each well in each of the images.
FIG. 14 is an image as recorded by the camera 128 with a sample of benzaldehyde provided into the gas channel of a 96 well microplate 80.
The microplate 80 shown in FIGS. 14-16 has different cells in different wells. As shown, the odorant receptors of different cells bind to different compounds. In each well of the 96 well microplate 80, the cells expressed the same OR. Different ORs were provided into different wells. […] This allows determination of which ORs may best detect menthol. It may also allow for genetically fine tuning the receptors.

Structure (SMILES) | fluorescent response of the responding wells | fluorescent response of all of the other wells
CCCCCc1ccco1 [2-pentylfuran] | strong fluorescent responses | no fluorescent response
O=Cc1ccccc1 [benzaldehyde] | strongly fluorescing | not at all
CC1CCC(C(C)C)C(O)C1 (stereo not drawn) [menthol] | strong fluorescent responses | no fluorescent response
